Experimental data from paper PMC9592910, “Tissue distribution and integrated pharmacokinetic properties of major effective constituents of oral Gegen-Qinlian decoction in mice” (Frontiers in Pharmacology, 2022).
Marks after values point to notes of the source that are not given here.

Tests used:
[1] = test system: dextran sodium sulfate-induced ulcerative colitis model mice; set-up: method as in Dong et al., 2022; conditions: oral 40 mg/kg for 7 days, DSS-induced ulcerative colitis model mice; ref Dong et al., 2022; cited from earlier work
[2] = Pharmacokinetics/tissue distribution of GQD constituents in the colons of mice after oral GQD; format: in vivo, Kunming mice; conditions: colon, mice; for half-life: po, read-out: T1/2 (converted)
Description: (§1) The liver and the colon homogenates were prepared with 10 times (V: W) the volume of ascorbic acid solution (200 μg/ml). Then the homogenates were pretreated as plasma to obtain the tissue samples for LC-MS/MS analysis. Fifty-four Kunming mice were randomly divided into nine groups according to body weight and gender (3 male and three female in each group). […] Then the C-T curves of the constituents in the plasma and the tissue homogenates were respectively drawn and their pharmacokinetic parameters were respectively calculated. […] It should be noted that the pharmacokinetic parameters of a GQD constituent was calculated based on its average concentration in six mice at each time point. The results were expressed as mean ± SD.

[3] = set-up: method as in Zhai et al., 2020; conditions: at 10 μM; ref Zhai et al., 2020; cited from earlier work
[4] = Pharmacokinetics of GQD constituents in the portal vein of mice after oral GQD; format: in vivo, Kunming mice; conditions: portal vein plasma, portal vein plasma, mice; for Cmax / MRT / AUC(0-t) / half-life: oral GQD extract 6.1 g/kg; for AUC(0-t): read-out: AUC0–24 h; for half-life: read-out: T1/2 (converted)
Description: (§2) Fifty-four Kunming mice were randomly divided into nine groups according to body weight and gender (3 male and three female in each group). Each group was orally administered with water solution (0.2 ml/10 g body weight) of the GQD extract powder at the dosage of 6.1 g/kg body weight. The dosage of GQD extract powder equals to 18 g/kg herbal pieces of GQD, which is equivalent to its clinical dosage. At each designed time point (0.08, 0.25, 0.5, 1, 2, 4, 8, 12, and 24 h) after oral administration, six mice were anesthetized with ether, and blood was collected from the portal vein (about 0.2 ml, aspirated in a 1 ml heparinized syringe) and then the systemic circulation (about 0.2 ml, collected in heparinized tubes after removal of the eyeball) of the mice to prepare plasma samples, and the livers and the colons were removed to prepare respective homogenate. After pretreatment, the concentrations of 19 major constituents of GQD in each sample were measured by the validated LC-MS/MS method (see “2.3”). Then the C-T curves of the constituents in the plasma and the tissue homogenates were respectively drawn and their pharmacokinetic parameters were respectively calculated.
(§3) It should be noted that the pharmacokinetic parameters of a GQD constituent was calculated based on its average concentration in six mice at each time point. The results were expressed as mean ± SD.

[5] = Pharmacokinetics/tissue distribution of GQD constituents in the livers of mice after oral GQD; format: in vivo, Kunming mice; conditions: liver, mice; for half-life: po, read-out: T1/2 (converted)
Description: as §1

[6] = Pharmacokinetics of GQD constituents in the systemic circulation of mice after oral GQD; format: in vivo, Kunming mice; conditions: systemic circulation plasma, systemic circulation plasma, mice; for half-life / Tmax / T1/2: oral GQD […]; for half-life: read-out: T1/2 (converted); for Cmax / MRT / AUC(0-t): oral GQD 6.1 g/kg; for AUC(0-t): read-out: AUC0–24 h
Description: as §2, §3

[7] = test system: rats with irritable bowel syndrome; set-up: method as in Wang et al., 2021; conditions: oral 6–24 mg/kg, ref Wang et al., 2021; cited from earlier work
[8] = test system: dextran sodium sulfate-induced colitis; set-up: method as in Jeon et al., 2020; conditions: oral 10 or 50 mg/kg; ref Jeon et al., 2020; cited from earlier work
[9] = both, Kunming, mouse, colon (homogenate), oral GQD extract […]
[10] = both, Kunming, mouse, colon (homogenate), oral GQD extract 6.1 g/kg
[11] = both, Kunming, mouse, colon (homogenate), oral GQD extract 6.1 g/kg, read-out: Tmax
[12] = both, Kunming, mouse, po, […], oral GQD extract […], read-out: Tmax
[13] = both, Kunming, mouse, liver (homogenate), oral GQD extract […]
[14] = both, Kunming, mouse, liver (homogenate), oral GQD extract 6.1 g/kg
[15] = both, Kunming, mouse, liver (homogenate), oral GQD extract 6.1 g/kg, read-out: Tmax
[16] = both, Kunming, mouse, po, […], read-out: Tmax

half-life [2, 9] | Cmax [2, 10] | MRT [2, 10] | Tmax [2, 11] | Tmax [4, 12] | Cmax ([4]; both, Kunming, mouse) | MRT ([4]; both, Kunming, mouse) | AUC(0-t) ([4]; both, Kunming, mouse) | half-life ([4]; both, Kunming, mouse) | half-life [5, 13] | Cmax [5, 14] | MRT [5, 14] | Tmax [5, 15] | half-life ([6]; both, Kunming, mouse, po, […]) | Tmax [6, 16] | Cmax ([6]; both, Kunming, mouse) | MRT ([6]; both, Kunming, mouse) | AUC(0-t) ([6]; both, Kunming, mouse) | SMILES | T1/2 ([5]; oral GQD extract […]) | T1/2 ([2]; oral GQD extract […]) | further results
2.1 h | 2150 ng/g | 5 h | 4 h | 0.25 h | 38.3 ng/mL | 2.6 h | 161 ng·h/mL | 1.2 h | 5.3 h | 53.4 ng/g | 5.3 h | 0.25 h | 1.9 h | 0.5 h | 22.4 ng/mL | 2.6 h | 94.9 ng·h/mL | COc1ccc2c(c1O)-c1c(O)c(OC)cc3c1[C@H](C2)[N+](C)(C)CC3 [Magnoflorine, magnoflorine] | – | – | –
2 to 3 h | 535 ng/g | 6.1 h | 4 h | 2 h | 1220 ng/mL | 3.3 h | 4510 ng·h/mL | 1 h | 2 to 3 h | 839 ng/g | 5 h | 4 h | 1.5 h | 2 h | 64.7 ng/mL | 3.6 h | 300 ng·h/mL | COc1c(O)cc(O)c2c(=O)cc(-c3ccccc3)oc12 [Wogonin, wogonin] | 2.6 h | 3.2 h | –

Continued, compound first:

SMILES | half-life [2, 9] | Cmax [2, 10] | MRT [2, 10] | Tmax [2, 11] | Tmax [4, 12] | Cmax ([4]; both, Kunming, mouse) | MRT ([4]; both, Kunming, mouse) | AUC(0-t) ([4]; both, Kunming, mouse) | half-life ([4]; both, Kunming, mouse) | half-life [5, 13] | Cmax [5, 14] | MRT [5, 14] | Tmax [5, 15] | half-life ([6]; both, Kunming, mouse, po, […]) | Tmax [6, 16] | Cmax ([6]; both, Kunming, mouse) | MRT ([6]; both, Kunming, mouse) | AUC(0-t) ([6]; both, Kunming, mouse) | T1/2 ([5]; oral GQD extract […]) | T1/2 ([2]; oral GQD extract […]) | further results
COc1ccc2cc3[n+](cc2c1OC)CCc1cc2c(cc1-3)OCO2 [Berberine, berberine] | 3.5 h | 6230 ng/g | 6 h | 4 h | 4 h | 191 ng/mL | 5.5 h | 1420 ng·h/mL | 8 h | ~10 h | 427 ng/g | 8.3 h | 4 h | ~6 h | 1 h | 85.4 ng/mL | 5.4 h | 419 ng·h/mL | 10.1# h | – | effect on intestinal mucosal barrier function and inflammatory reaction [1]: significantly improved intestinal mucosal barrier function; anti-inflammatory effect [3]: significant anti-inflammatory effect; T1/2 [6]: 5.3 h
COc1cc2c(cc1OC)-c1cc3ccc(OC)c(OC)c3c[n+]1CC2 [Palmatine, palmatine] | – | – | – | – | – | – | – | – | – | – | – | – | – | – | – | – | – | – | 4.6 h | 3.8 h | Tmax ([2]; oral GQD extract […]): 4.0 h; T1/2 ([4]; oral GQD extract […]): 3.0 h; Tmax ([4]; oral GQD extract […]): 4.0 h; Tmax ([5]; oral GQD extract […]): 2.0 h; T1/2 [6]: 7.2 h; Tmax [6]: 1.0 h
O=c1c(-c2ccc(O)cc2)coc2c([C@@H]3O[C@H](CO)[C@@H](O)[C@H](O)[C@H]3O)c(O)ccc12 [Puerarin, puerarin] | 1 to 4 h | 61600 ng/g | 5.9 h | 4 h | 0.25 to 0.5 h | 1990 ng/mL | 3.2 h | 6710 ng·h/mL | 2.9 h | 3 to 4 h | 2870 ng/g | 3.8 h | 0.5 h | 3.4 h | 0.25 to 0.5 h | 1580 ng/mL | 3.3 h | 5230 ng·h/mL | 4.0 h | 1.3 h | effect on irritable bowel syndrome symptoms [7]: improved symptoms of rats with irritable bowel syndrome; effect on dextran sodium sulfate-induced colitis [8]: alleviated dextran sodium sulfate-induced colitis
